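Cells were grown in 96-well plates and exposed to each compound for 48 hours at five concentrations; endpoints were interpolated linearly between bracketing concentrations, or set to the highest concentration if not reached. Abbreviation: GI50, concentration required for 50% inhibition of growth.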 The source made the active and inactive calls. Cut-off read from the data, not from the text of the source: active = GI50 up to about 1.1 µM and inactive = higher.
What was measured:
Experiment in all cases: NCI anticancer screen, dose series, 48 h
IGROV-1 = system: IGROV-1
M14 = system: M14
NCI-H226 = system: NCI-H226
ACHN = system: ACHN
OVCAR-5 = system: OVCAR-5
OVCAR-4 = system: OVCAR-4
COLO 205 = system: COLO 205
UACC-257 = system: UACC-257
OVCAR-3 = system: OVCAR-3
HOP-62 = system: HOP-62
KM12 = system: KM12
TK-10 = system: TK-10
SK-MEL-28 = system: SK-MEL-28
DU-145 = system: DU-145
MDA-N = system: MDA-N
SR = system: SR
LOX IMVI = system: LOX IMVI
786-0 = system: 786-0
MOLT-4 = system: MOLT-4
HCC 2998 = system: HCC 2998

Row | Compound | GI50 (IGROV-1) | GI50 (M14) | GI50 (NCI-H226) | GI50 (ACHN) | GI50 (OVCAR-5) | GI50 (OVCAR-4) | GI50 (COLO 205) | GI50 (UACC-257) | GI50 (OVCAR-3) | GI50 (HOP-62) | GI50 (KM12) | GI50 (TK-10) | GI50 (SK-MEL-28) | GI50 (DU-145) | GI50 (MDA-N) | GI50 (SR) | GI50 (LOX IMVI) | GI50 (786-0) | GI50 (MOLT-4) | GI50 (HCC 2998)
1 | c1ccc(C2=NN(c3nc4ccccc4s3)C3(CCCCC3)N2)nc1 | 19.7 µM (inactive) | 21.4 µM (inactive) | 19.4 µM (inactive) | 29.9 µM (inactive) | 43.5 µM (inactive) | 24.8 µM (inactive) | 19.3 µM (inactive) | 16.7 µM (inactive) | 16.7 µM (inactive) | 28.9 µM (inactive) | 22 µM (inactive) | 21.8 µM (inactive) | 44.3 µM (inactive) | 35.7 µM (inactive) | 24.9 µM (inactive) | 1.85 µM (inactive) | 20.1 µM (inactive) | 18.3 µM (inactive) | 4.01 µM (inactive) | –
2 | c1ccc([P+](c2ccccc2)(c2ccccc2)C2c3ccccc3-c3ccccc32)cc1 | 1.98 µM (inactive) | 3.14 µM (inactive) | 1.95 µM (inactive) | 2.35 µM (inactive) | 2.59 µM (inactive) | – | 1.33 µM (inactive) | 2.31 µM (inactive) | 1.87 µM (inactive) | 1.5 µM (inactive) | – | 2.53 µM (inactive) | 3.01 µM (inactive) | 2.87 µM (inactive) | 0.895 µM (active) | – | 1.32 µM (inactive) | 3.09 µM (inactive) | 1.67 µM (inactive) | 2.6 µM (inactive)
3 | COC1=C2C=[N+](C)C3C(=C2C=CC1OC)Cc1cc2c(cc13)OCO2 (stereo not given) | > 10 µM (inactive) | 15.5 µM (inactive) | 15.4 µM (inactive) | – | 18.2 µM (inactive) | 10.5 µM (inactive) | 5.26 µM (inactive) | 11.4 µM (inactive) | 3.75 µM (inactive) | 13.9 µM (inactive) | 2.8 µM (inactive) | 15.5 µM (inactive) | 15.1 µM (inactive) | 14.5 µM (inactive) | 11.4 µM (inactive) | 0.879 µM (active) | 16.3 µM (inactive) | 11.9 µM (inactive) | 3.77 µM (inactive) | –
4 | COc1ccc(/C=C2\N=C3N(Cc4ccccc4)C=C(N)N3C2=O)cc1 | 69.3 µM (inactive) | > 100 µM (inactive) | 55 µM (inactive) | > 100 µM (inactive) | 82.8 µM (inactive) | > 100 µM (inactive) | > 100 µM (inactive) | 30.8 µM (inactive) | > 100 µM (inactive) | 39.3 µM (inactive) | > 100 µM (inactive) | > 100 µM (inactive) | > 100 µM (inactive) | > 100 µM (inactive) | > 100 µM (inactive) | – | > 100 µM (inactive) | 52.7 µM (inactive) | > 100 µM (inactive) | > 100 µM (inactive)
5 | C[C@@H](CC(O)C(O)C(C)(C)O)C1CCC23CC12CCC1[C@@]2(C)CCC(O)C(C)(C)C2CC(OC2OC(CO)C(O)C(O)C2O)[C@]13C (stereo not given in full) | > 10 µM (inactive) | > 10 µM (inactive) | > 10 µM (inactive) | > 10 µM (inactive) | > 10 µM (inactive) | > 10 µM (inactive) | > 10 µM (inactive) | > 10 µM (inactive) | > 10 µM (inactive) | > 10 µM (inactive) | > 10 µM (inactive) | > 10 µM (inactive) | > 10 µM (inactive) | > 10 µM (inactive) | > 10 µM (inactive) | – | > 10 µM (inactive) | > 10 µM (inactive) | > 10 µM (inactive) | > 10 µM (inactive)
6 | NN/C(=N\S(=O)(=O)c1cc(S(=O)(=O)c2ccccc2)cs1)Nc1ccc(Cl)cc1 | 25.9 µM (inactive) | 22 µM (inactive) | 33.1 µM (inactive) | 27.5 µM (inactive) | 66.2 µM (inactive) | 20 µM (inactive) | 19.4 µM (inactive) | 19 µM (inactive) | 20.3 µM (inactive) | 38.4 µM (inactive) | 26.1 µM (inactive) | 24.8 µM (inactive) | 35.2 µM (inactive) | 26.1 µM (inactive) | 20.5 µM (inactive) | 9.71 µM (inactive) | 21.2 µM (inactive) | 35.2 µM (inactive) | 18.6 µM (inactive) | –
7 | Fc1ccc(C(OCCN2CCC3CCC(C2)N3C/C=C/c2cccnc2)c2ccc(F)cc2)cc1 (stereo not given) | 13.3 µM (inactive) | 2.53 µM (inactive) | 12.1 µM (inactive) | 14.2 µM (inactive) | 13.8 µM (inactive) | 12.6 µM (inactive) | 1.3 µM (inactive) | 3.78 µM (inactive) | 12.8 µM (inactive) | 14.2 µM (inactive) | 10.5 µM (inactive) | 11.5 µM (inactive) | 2.24 µM (inactive) | 15.8 µM (inactive) | 11.6 µM (inactive) | – | 13.1 µM (inactive) | 5.27 µM (inactive) | 2.48 µM (inactive) | 4.79 µM (inactive)

From ChEMBL document CHEMBL1201862, “PubChem BioAssay data set” (2004)
